Experimental data as given in patent US20230172957A1, “USE OF ASTRAGALUS MEDICINAL COMPOSITION FOR PREPARING DRUG FOR ENHANCING CANCER THERAPY” (PHYTOHEALTH CORPORATION, priority 2020, published 2023).
Where “and” joins values, the source holds several entries; their conditions need not be identical. Equal entries are not always repeated.

What was measured:
OVCAR cells = test: Cell viability of ovarian cancer cell line measured by MTS (poisonous dose test and chemotherapeutic synergism); type: cell-based
Procedure: (1) Poisonous dose test (the chemotherapy drug dose for inhibiting the cell growth and leaving 60˜70% of growth capability is selected for subsequent test). (2) The cells are inoculated in 96-well plate and cultured for 24 hours. (3) Test drugs at different concentrations are added in, the test concentrations of the r-APS are 0, 2 and 4 mg/ml, the test concentrations of the astragalus pharmaceutical composition comprising the r-APS and the mannose (r-APS+mannose) are 0, 5 and 10 mg/ml. (4) The dose with a poisoning effect on 35-40% of individual cells is selected as chemotherapy drug dose. (5) The cell viability is tested in 48 and 72 hours respectively after addition. (6) Experiment on chemotherapeutic synergism of the r-APS and the astragalus pharmaceutical composition comprising the r-APS and the mannose (r-APS+mannose). (7) The cells are inoculated in 96-well plate and cultured for 24 hours. (8) The r-APS or the astragalus pharmaceutical composition comprising the r-APS and the mannose (r-APS+mannose) in combination with chemotherapy drug are cultured for 48 hours, the dose of the r-APS and the astragalus pharmaceutical composition comprising the r-APS and the mannose (r-APS+mannose) is three poisonous doses for test, the cell viability is measured by MTS in 48 hours.

HCT116 cells = test: Cell viability of colorectal cancer cells measured by MTS (poisonous dose test and chemotherapeutic synergism); type: cell-based
Procedure: (1) First of all, poisonous dose test (the chemotherapy drug dose for inhibiting the cell growth and leaving 60˜70% of growth capability is selected for subsequent test) (2) The cells are inoculated in 96-well plate and cultured for 24 hours. (3) Test drugs at different concentrations are added in, the test concentrations of the r-APS are 0, 2 and 4 mg/ml, the test concentrations of the astragalus pharmaceutical composition comprising the r-APS and the mannose (r-APS+mannose) are 0, 5 and 10 mg/ml. (4) The dose with a poisoning effect on 35˜40% of individual cells is selected as chemotherapy drug dose. (5) The cell viability is tested in 48 and 72 hours respectively after addition. (6) Experiment on chemotherapeutic synergism of the r-APS and the astragalus pharmaceutical composition comprising the r-APS and the mannose (r-APS+mannose): (7) The cells are inoculated in 96-well plate and cultured for 24 hours. (8) The r-APS or the astragalus pharmaceutical composition comprising the r-APS and the mannose (r-APS+mannose) in combination with chemotherapy drug are cultured for 48 hours, the doses of the r-APS and the astragalus pharmaceutical composition comprising the r-APS and the mannose (r-APS+mannose) are selected four poisonous doses for test, and then the cell viability is measured by MTS in 48 hours.

[1] = Olaparib 0.2M, poisonous dose test
[2] = Olaparib 0.4M, poisonous dose test
[3] = Olaparib 0.6M, poisonous dose test
[4] = Olaparib 0.8M, poisonous dose test
[5] = Olaparib 1M, poisonous dose test
[6] = Olaparib alone (0 mg/ml test drug), 48 hours
[7] = Regorafenib 0.01 mM alone (0 mg/ml test drug), HCT116, 48 hours
[8] = Regorafenib 0.01 mM, HCT116, poisonous dose test

## O=C(c1cc(Cc2n[nH]c(=O)c3ccccc23)ccc1F)N1CCN(C(=O)C2CC2)CC1 [Olaparib]
OVCAR cells; [1]
  Cell viability (%): 100.55%
  Mean value (MEAN) of three repeats (raw reading): 0.984
OVCAR cells; [2]
  Cell viability (%): 90.32%
  Mean value (MEAN) of three repeats (raw reading): 0.884
OVCAR cells; [3]
  Cell viability (%): 75.13%
  Mean value (MEAN) of three repeats (raw reading): 0.735
OVCAR cells; Olaparib 0.7M, poisonous dose test
  cell viability of cancer cells poisoned to: 60%
OVCAR cells; [4]
  Cell viability (%): 48.72%
  Mean value (MEAN) of three repeats (raw reading): 0.477
OVCAR cells; [5]
  Cell viability (%): 18.74%
  Mean value (MEAN) of three repeats (raw reading): 0.183
OVCAR cells; [6]
  Cell viability (%): 60.189% and 61.4%
  Mean value (MEAN) of three repeats (raw reading): 0.595 and 0.605

## CNC(=O)c1cc(Oc2ccc(NC(=O)Nc3ccc(Cl)c(C(F)(F)F)c3)c(F)c2)ccn1 [Regorafenib]
HCT116 cells; Homo sapiens, HCT-116, Regorafenib 0.00001 mM, HCT116, poisonous dose test
  viability at 0.01 µM: 110%
HCT116 cells; Homo sapiens, HCT-116, Regorafenib 0.0001 mM, HCT116, poisonous dose test
  viability at 0.1 µM: 107%
HCT116 cells; Homo sapiens, HCT-116, Regorafenib 0.001 mM, HCT116, poisonous dose test
  viability at 1 µM: 94.4%
HCT116 cells; Homo sapiens, HCT-116, Regorafenib 0.01 mM, HCT116, poisonous dose test
  viability at 10 µM: 60%
HCT116 cells; Homo sapiens, HCT-116, Regorafenib 0.1 mM, HCT116, poisonous dose test
  viability at 100 µM: 9.2%
HCT116 cells; Regorafenib 0.00001 mM, HCT116, poisonous dose test
  Mean value (MEAN) of three repeats (raw reading): 1.103
HCT116 cells; Regorafenib 0.0001 mM, HCT116, poisonous dose test
  Mean value (MEAN) of three repeats (raw reading): 1.075
HCT116 cells; Regorafenib 0.001 mM, HCT116, poisonous dose test
  Mean value (MEAN) of three repeats (raw reading): 0.950
HCT116 cells; [7]
  Cell viability (%): 71.4% and 71.43%
  Mean value (MEAN) of three repeats (raw reading): 0.641
HCT116 cells; [8]
  Cell viability (%): 63.5%
  Mean value (MEAN) of three repeats (raw reading): 0.639
HCT116 cells; Regorafenib 0.1 mM, HCT116, poisonous dose test
  Mean value (MEAN) of three repeats (raw reading): 0.093
